This passage reports EC50 results from patent US12264173B2 (GILEAD SCIENCES, INC., priority 2020, dated 2025).

Each structure is given as a SMILES string. Where two headings read alike, the source gives them in different places.

The term EC50 denotes the concentration at which the effect is half-maximal.

Holding throughout (format): cell-based
The subject of one test is DENV2 replicon. Description: DENV-2 Huh-7 Rep EC50 (replicon luminescence). Conditions: Dengue virus, DENV2, Huh-7, 48 h. The procedure, abridged: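 Huh-7 cells carrying a DENV2 replicon, 5,000 cells/well, were incubated with dosed compounds for 48 h at 37° C. EnduRen live-cell substrate was added 1.5 h before luminescence reading. EC50 came from dose-response against DMSO-only wells.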

The next test relates to RSV strain A2. Description: microbe, parasite or virus in culture. Conditions: human respiratory syncytial virus, read-out: RSV HEp-2 EC50. The procedure, abridged: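 Cytopathic-effect protection assay: HEp-2 cells (50,000/mL) infected with pre-titered RSV A2 onto 3-fold serial compound dilutions, incubated 4 days at 37° C. Cell viability read by CellTiter-Glo luminescence; percent inhibition derived against 0% and 100% virus-inhibition controls.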

In another test the test system is RSV A2. Description: RSV NHBE EC50 (RSV A2 antiviral assay in NHBE cells). Conditions: human respiratory syncytial virus, NHBE, read-out: RSV NHBE EC50. The procedure, abridged:
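NHBE cells (7,500/well, passage ≤6) given 3-fold serially diluted compound (0.05% DMSO final), then infected with RSV A2 at 1×10^4.5 tissue culture infectious doses/mL. After 4 days at 37 °C, viability measured by CellTiter-Glo luminescence at 25 °C.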

The subject of the next test is HRV16. Description: HRV16 HeLa EC50 (cytopathic effect in H1-HeLa cells). Particulars: read-out: HRV16 HeLa EC50. The procedure, abridged:
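H1-HeLa cells seeded one day before, given 3-fold serial compound dilutions in triplicate just prior to infection with pre-titrated virus. Incubated 96 h at 33 °C/5% CO2; protection from cytopathic effect read as viability by CellTiter-Glo luminescence, normalised to infected untreated (0%) and uninfected (100%) controls.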

Where [1] appears, read: read-out: DENV-2 REP Huh7 EC50, Table 3, Huh-7 DENV2 replicon cells, 48 hours.
Where [2] appears, read: HEp-2, 96 h, Table 3, HEp-2 cells, RSV A2, 4 days.
[3] abbreviates: 96 h, Table 3, NHBE cells, RSV A2, 4 days.
Where [4] appears, read: 96 h, Table 3, H1-HeLa cells, 96 h.

Take `CCOC(=O)[C@H](C)NP(=O)(N[C@@H](C)C(=O)OCC)OC[C@@]1(C#N)O[C@@H](c2ccc3c(N)ncnn23)[C@H](OC(=O)C(C)C)[C@@H]1OC(=O)C(C)C` [Example 137, ((2R,3S,4R,5S)-5-(4-aminopyrrolo[2,1-f][1,2,4]triazin-7-yl)-2-cyano-3,4-diisobutylatetetrahydrofuran-2-yl)methyl bis-ethyl L-alaninate phosphate]: the EC50 was determined as 38.4 µM with DENV2 replicon (setting [1]); 0.467 µM in the test on RSV strain A2 (setting [2]); 0.467 µM in the test on RSV strain A2 (HEp-2, Table 5 comparative activity, 2',3'-OH vs -OC(O)iPr); 0.065 µM in the test with RSV A2 (setting [3]); 0.065 µM with RSV A2 (Table 5 comparative activity, 2',3'-OH vs -OC(O)iPr); 1.04 µM with HRV16 (setting [4]). Besides, the EC50 in the test on HRV16 (HeLa, Table 5 comparative activity, 2',3'-OH vs -OC(O)iPr) was 1.04 µM.
As to `COC(=O)[C@H](C)NP(=O)(OC[C@@]1(C#N)O[C@@H](c2ccc3c(N)ncnn23)[C@H](OC(=O)C(C)C)[C@@H]1OC(=O)C(C)C)Oc1ccccc1` (stereo partly drawn) [Example 138, (2R,3S,4S,5S)-5-(4-aminopyrrolo[2,1-f][1,2,4]triazin-7-yl)-2-cyano-2-((((((S)-1-methoxy-1-oxopropan-2-yl)amino)(phenoxy)phosphoryl)oxy)methyl)tetrahydrofuran-3,4-diyl bis(2-methylpropanoate)], the EC50 in the test on DENV2 replicon (read-out: DENV-2 REP Huh7 EC50) was determined as 5.2 µM; with RSV strain A2 (setting [2]) it was 0.063 µM; in the test on RSV A2 (setting [3]), 0.017 µM; in the test with HRV16 (setting [4]), 0.101 µM.
As for `CCC(=O)O[C@H]1[C@H](c2ccc3c(N)ncnn23)O[C@](C#N)(COP(=O)(N[C@@H](C)C(=O)OC)Oc2ccccc2)[C@H]1OC(=O)CC` (stereo partly drawn) [Example 141, (2R,3S,4S,5S)-5-(4-aminopyrrolo[2,1-f][1,2,4]triazin-7-yl)-2-cyano-2-((((((S)-1-methoxy-1-oxopropan-2-yl)amino)(phenoxy)phosphoryl)oxy)methyl)tetrahydrofuran-3,4-diyl dipropionate], the EC50 with DENV2 replicon (read-out: DENV-2 REP Huh7 EC50) stood at 7.49 µM; in the test with RSV strain A2 (setting [2]) it was 0.08 µM; in the test on RSV A2 (setting [3]), 0.023 µM; in the test on HRV16 (setting [4]), 0.253 µM.
On to `COC(=O)[C@H](C)NP(=O)(N[C@@H](C)C(=O)OC)OC[C@@]1(C#N)O[C@@H](c2ccc3c(N)ncnn23)[C@H](OC(=O)C(C)C)[C@@H]1OC(=O)C(C)C` [Example 149, ((2R,3S,4R,5S)-5-(4-aminopyrrolo[2,1-f][1,2,4]triazin-7-yl)-2-cyano-3,4-diisobutylatetetrahydrofuran-2-yl)methyl bis-methyl L-alaninate phosphate], for which the EC50 was above 35.8 µM with DENV2 replicon (setting [1]), 1.15 µM in the test with RSV strain A2 (setting [2]), 0.084 µM with RSV A2 (setting [3]) and 3.19 µM in the test on HRV16 (setting [4]).
On to `COC(=O)[C@H](C)NP(=O)(N[C@@H](C)C(=O)OC)OC[C@@]1(C#N)O[C@@H](c2ccc3c(NC(=O)C(C)C)ncnn23)[C@H](OC(=O)C(C)C)[C@@H]1OC(=O)C(C)C` [Example 150, ((2R,3S,4R,5S)-5-(4-isobutyramidopyrrolo[2,1-f][1,2,4]triazin-7-yl)-2-cyano-3,4-diisobutylatetetrahydrofuran-2-yl)methyl bis-methyl L-alaninate phosphate], for which the EC50 is above 50 µM in the test on DENV2 replicon (setting [1]), 1.4 µM in the test with RSV strain A2 (setting [2]), 0.07 µM in the test on RSV A2 (setting [3]) and 3.48 µM in the test with HRV16 (setting [4]).
Regarding `COCC(=O)O[C@H]1[C@H](c2ccc3c(N)ncnn23)O[C@](C#N)(CO[P@@](=O)(N[C@@H](C)C(=O)OC(C)C)Oc2ccccc2)[C@H]1OC(=O)COC` [Example 151, (2R,3S,4S,5S)-5-(4-aminopyrrolo[2,1-f][1,2,4]triazin-7-yl)-2-cyano-2-((((S)-(((S)-1-isopropoxy-1-oxopropan-2-yl)amino)(phenoxy)phosphoryl)oxy)methyl) tetrahydrofuran-3,4-diyl bis(2-methoxyacetate)], the EC50 in the test with DENV2 replicon (read-out: DENV-2 REP Huh7 EC50) was 19.5 µM; in the test with RSV strain A2 (setting [2]) it was 0.226 µM; in the test with RSV A2 (setting [3]), 0.751 µM; with HRV16 (setting [4]), 0.946 µM.
For the compound `CC(C)OC(=O)[C@H](C)N[P@](=O)(OC[C@@]1(C#N)O[C@@H](c2ccc3c(N)ncnn23)[C@H](OC(=O)CC(C)(C)O)[C@@H]1OC(=O)CC(C)(C)O)Oc1ccccc1` [Example 152, (2R,3S,4S,5S)-5-(4-aminopyrrolo[2,1-f][1,2,4]triazin-7-yl)-2-cyano-2-((((S)-(((S)-1-isopropoxy-1-oxopropan-2-yl)amino)(phenoxy)phosphoryl)oxy)methyl) tetrahydrofuran-3,4-diyl bis(3-hydroxy-3-methylbutanoate)], the EC50 was above 50 µM in the test with DENV2 replicon (read-out: DENV-2 REP Huh7 EC50), 2.93 µM in the test with RSV strain A2 (setting [2]), above 5 µM in the test with RSV A2 (setting [3]) and above 50 µM in the test on HRV16 (setting [4]).
Consider `CC(C)[C@@H](N)C(=O)O[C@H]1[C@H](c2ccc3c(N)ncnn23)O[C@](C#N)(CO[P@@](=O)(N[C@@H](C)C(=O)OC2CCCCC2)Oc2ccccc2)[C@H]1OC(=O)[C@H](N)C(C)C` [Example 153, (2R,3S,4S,5S)-5-(4-aminopyrrolo[2,1-f][1,2,4]triazin-7-yl)-2-cyano-2-((((S)-(((S)-1-(cyclohexyloxy)-1-oxopropan-2-yl)amino)(phenoxy)phosphoryl)oxy)methyl)tetrahydrofuran-3,4-diyl (2R,2′R)-bis(2-amino-3-methylbutanoate)], for which the EC50 in the test on DENV2 replicon (read-out: DENV-2 REP Huh7 EC50) came to 6.68 µM; with RSV strain A2 (setting [2]), 0.11 µM; in the test with RSV A2 (setting [3]), 0.283 µM; with HRV16 (setting [4]) it was 0.47 µM.
In the same order, the values of `CO[C@H](C)C(=O)O[C@H]1[C@H](c2ccc3c(N)ncnn23)O[C@](C#N)(CO[P@@](=O)(N[C@@H](C)C(=O)OC(C)C)Oc2ccccc2)[C@H]1OC(=O)[C@@H](C)OC` [Example 154, (2R,3S,4S,5S)-5-(4-aminopyrrolo[2,1-f][1,2,4]triazin-7-yl)-2-cyano-2-((((S)-(((S)-1-isopropoxy-1-oxopropan-2-yl)amino)(phenoxy)phosphoryl)oxy)methyl) tetrahydrofuran-3,4-diyl (2R,2′R)-bis(2-methoxypropanoate)] are 20.5 µM, 0.185 µM, 0.114 µM and 0.874 µM.
In the same order, the values of `CO[C@H](C)C(=O)Nc1ncnn2c([C@@H]3O[C@](C#N)(CO[P@@](=O)(N[C@@H](C)C(=O)OC(C)C)Oc4ccccc4)[C@@H](OC(=O)[C@@H](C)OC)[C@H]3OC(=O)[C@@H](C)OC)ccc12` [Example 155, (2R,3S,4S,5S)-2-cyano-2-((((S)-(((S)-1-isopropoxy-1-oxopropan-2-yl)amino)(phenoxy)phosphoryl)oxy)methyl)-5-(4-((R)-2-methoxypropanamido)pyrrolo[2,1-f][1,2,4]triazin-7-yl)tetrahydrofuran-3,4-diyl (2R,2′R)-bis(2-methoxypropanoate)] are 29.2 µM, 0.437 µM, 0.294 µM and 2.69 µM.
Taken in the same sequence, the figures for `CC(C)OC(=O)[C@H](C)N[P@](=O)(OC[C@@]1(C#N)O[C@@H](c2ccc3c(N)ncnn23)[C@H](OC(=O)C2CCOCC2)[C@@H]1OC(=O)C1CCOCC1)Oc1ccccc1` [Example 156, (2R,3S,4S,5S)-5-(4-aminopyrrolo[2,1-f][1,2,4]triazin-7-yl)-2-cyano-2-((((S)-(((S)-1-isopropoxy-1-oxopropan-2-yl)amino)(phenoxy)phosphoryl)oxy)methyl) tetrahydrofuran-3,4-diyl bis(tetrahydro-2H-pyran-4-carboxylate)] were above 50 µM, 0.456 µM, above 5 µM and 21.7 µM.
For the compound `CC(C)OC(=O)[C@H](C)N[P@](=O)(OC[C@@]1(C#N)O[C@@H](c2ccc3c(N)ncnn23)[C@H](OC(=O)[C@@H](N)C(C)C)[C@@H]1OC(=O)[C@@H](N)C(C)C)Oc1ccccc1` [Example 157, (2R,3S,4S,5S)-5-(4-aminopyrrolo[2,1-f][1,2,4]triazin-7-yl)-2-cyano-2-((((S)-(((S)-1-isopropoxy-1-oxopropan-2-yl)amino)(phenoxy)phosphoryl)oxy)methyl)tetrahydrofuran-3,4-diyl (2S,2'S)-bis(2-amino-3-methylbutanoate)], the EC50 in the test on DENV2 replicon (read-out: DENV-2 REP Huh7 EC50) came to 25.8 µM; in the test on RSV strain A2 (setting [2]), 0.227 µM; in the test on RSV A2 (setting [3]), 1.59 µM; with HRV16 (setting [4]), 1.79 µM.
In the same order, the values of `CO[C@@H](C)C(=O)O[C@H]1[C@H](c2ccc3c(N)ncnn23)O[C@](C#N)(CO[P@@](=O)(N[C@@H](C)C(=O)OC(C)C)Oc2ccccc2)[C@H]1OC(=O)[C@H](C)OC` [Example 158, (2R,3S,4S,5S)-5-(4-aminopyrrolo[2,1-f][1,2,4]triazin-7-yl)-2-cyano-2-((((S)-(((S)-1-isopropoxy-1-oxopropan-2-yl)amino)(phenoxy)phosphoryl)oxy)methyl) tetrahydrofuran-3,4-diyl (2S,2'S)-bis(2-methoxypropanoate)] are 15.7 µM, 0.139 µM, 0.052 µM and 0.731 µM.
